We go through two molecules from patent US9879278B2, “Non-viral episomal suicide construct” (WAKE FOREST UNIVERSITY HEALTH SCIENCES, priority 2012, dated 2018).

The test system of experiment [1] is RA-differentiated NCCIT(pSuicide) cells. The experiment can be described thus: Tumor development from RA-differentiated NCCIT(pSuicide) cells with or without in vitro ganciclovir selection. The experiment is classed as in vivo, SCID mice. Here is the method:
(§1) One aliquot of cells was maintained in differentiation medium containing 2 μmol/L ganciclovir for 7 days (for in vitro immuno-analysis) or 14 days (for in vivo tumor formation). As a negative control, counterpart cells were grown in differentiation medium containing 0.1% DMSO in which ganciclovir is dissolved.
Trypsinized cells washed in PBS were resuspended in ice-cold PBS containing 30% BD Matrigel (BD Biosciences), drawn into an ice-cold 1-mL syringe, and kept on ice for subcutaneous injection into 8-˜12-week-old female immunodeficient SCID mice (Charles River Laboratories, Wilmington, Mass.) as previously described (Prokhorova et al., 2009, Stem Cells Dev 2009; 18:47-54). For undifferentiated NCCIT and NCCIT (pSuicide) cells, 1.5×10^6 cells in 100 μl volume were injected for each mouse. For differentiated NCCIT (pSuicide) cells, 3×10^6 cells were injected.
(§2) When tumors reached about 8 mm in size, ganciclovir (50 mg/kg body weight) was delivered intraperitoneally daily for 2-3 weeks. Each tumor was regarded as a prolate spheroid and the greatest longitudinal diameter (L) and greatest transverse diameter (B) were monitored with a caliper every 2 days by the same person. The two dimensions were to lie perpendicular to each other in a plane tangential to the body wall. Tumor size was estimated from the formula V=½(L×B^2) as previously described (Euhus et al., 1986, J Surg Oncol 31:229-34). The size of tumors formed by NCCIT and NCCIT (pSuicide) cells was compared by analysis of variation (ANOVA), setting as 1 the volume on the day ganciclovir was first delivered.

For experiment [2], the system named is NCCIT cells. The experiment can be described thus: OCT4 immunofluorescence of RA-differentiated cells with ganciclovir.
Experiment [3] relates to NCCIT (pSuicide) cells. The experiment is described as above. The experiment is classed as cell-based, human. Here is the method:
as §1
Briefly, differentiated NCCIT cells growing on chamber slides were fixed in 4% PFA for 15 min at room temperature and permeabilized in 0.2% Triton X-100/PBS for 10 min. After blocking with 10% horse serum, cells were incubated with 3%0/horse serum diluted (1:50) OCT4 antibody (Santa Cruz Biotechnology) for 1 h at room temperature, followed by three washes in PBS-T (0.1% Tween 20 in phosphate-buffered saline). […] Images were captured under a fluorescent microscope.

The test system of experiment [4] is NCCIT cells. The experiment can be described thus: Flow cytometry of OCT4-expressing cells after RA and ganciclovir. The experiment is classed as cell-based, human. The method, then:
as §1
(§3) Cells were trypsinized and about 5×10^5 cells were fixed in 2% paraformaldehyde for 10 min at room temperature. Cells were pelleted and permeabilized by resuspension with vigorous vortexing in 500 μl iced-cold methanol and incubated at 4° C. for at least 10 min. After 3 washes with staining buffer (PBS with 1% BSA), the cells were resuspended in 100 μl OCT4 antibody (Santa Cruz Biotechnology), diluted to 1:100 with staining buffer, and incubated for 30 min at 4° C. The cells were washed 3 times with staining buffer and incubated in 1:300 diluted Cy5-conjugated goat anti-mouse Fab for 30 min at 4° C. The cells were assessed for OCT4 expression using a BD FACSCalibur cytometer (BD Biosciences) with CellQuest software.

For experiment [5], the system named is NCCIT (pSuicide) cells. The description is as above. The experiment is classed as cell-based, human. Here is the method: as §1, §3
Experiment [6] concerns tumors from NCCIT cells. Put plainly: In vivo ganciclovir treatment of tumors. Set-up: species or system SCID mice. The method, then:
as §2, with “Trypsinized cells washed in PBS were resuspended in ice-cold PBS containing 30% BD Matrigel (BD Biosciences), drawn into an ice-cold 1-mL syringe, and kept on ice for subcutaneous injection into 8-˜12-week-old female immunodeficient SCID mice (Charles River Laboratories, Wilmington, Mass.) as previously described (Prokhorova et al., 2009, Stem Cells Dev 2009; 18:47-54). For undifferentiated NCCIT and NCCIT (pSuicide) cells, 1.5×10^6 cells in 100 μl volume were injected for each mouse. For differentiated NCCIT (pSuicide) cells, 3×10^6 cells were injected. When” for “When”

Experiment [7] has as its system tumors from NCCIT (pSuicide) cells. The experiment can be described thus: In vivo ganciclovir treatment of tumors. Also noted: species or system SCID mice. The method, then:
as §2, with “Trypsinized cells washed in PBS were resuspended in ice-cold PBS containing 30% BD Matrigel (BD Biosciences), drawn into an ice-cold 1-mL syringe, and kept on ice for subcutaneous injection into 8-˜12-week-old female immunodeficient SCID mice (Charles River Laboratories, Wilmington, Mass.) as previously described (Prokhorova et al., 2009, Stem Cells Dev 2009; 18:47-54). For undifferentiated NCCIT and NCCIT (pSuicide) cells, 1.5×10^6 cells in 100 μl volume were injected for each mouse. For differentiated NCCIT (pSuicide) cells, 3×10^6 cells were injected. When” for “When”

The test system of experiment [8] is NCCIT (pSuicide) cells. The experiment can be described thus: Cell survival under ganciclovir treatment. The experiment is classed as cell-based, human. The method, then: (§4) NCCIT and HeLa cells with and without pSuicide episomal DNA were treated with and without 2 μmol/L ganciclovir. Cell numbers and morphology were compared 7 days after treatment.
In experiment [9] the test system is HeLa (pSuicide) cells. The experiment can be described thus: Cell survival under ganciclovir treatment. The experiment is classed as cell-based. Here is the method:
as §4

The test system of experiment [10] is NCCIT cells. The experiment can be described thus: Western blotting of OCT4A after RA-induced differentiation and ganciclovir. The experiment is classed as cell-based, human. The following applies: ganciclovir added to RA-induced NCCIT cells. Here is the method: as §1
(§5) Cells were lysed in RIPA buffer with protease inhibitors (0.5 mmol/L PMSF and 1×Complete Protease Inhibitor Cocktail from Roche) for SDS-PAGE and Western blotting analyses. Monoclonal anti-β-actin antibody was from Sigma and used at 1:5000 (St Louis, Mo.). Rabbit anti-HSV thymidine kinase antiserum was obtained from Dr. William Summers of Yale University (1:5000); anti-OCT4A antibody was from Santa Cruz Biotechnology (Santa Cruz, Calif.) and used at 1:1000. Horseradish peroxidase (HRP)-conjugated secondary antibodies (1:1000) were purchased from Pierce (Rockford, Ill.). Chemiluminescent reagents from Pierce were used to visualize the protein signals on an LAS-3000 imaging system (Fujifilm). The Integrated Density function (Image J software) was used to quantify the expression of individual proteins after normalized by β-actin.

Experiment [11] has as its system NCCIT (pSuicide) cells. Described as above. The experiment is classed as cell-based, human. The following applies: RA-induced NCCIT (pSuicide) cells treated with ganciclovir. The method, then: as §1, §5
Where [12] appears, read: 3 × 10^6 cells/mouse, SCID mice.
The mark [13] stands for this setting: 2 μmol/L ganciclovir for 7 days.

Several values for one entry are separate records, joined by “and”; a condition that tells them apart may be missing. Identical values can stand only once. Entries after “also recorded” stand apart in the source; their conditions may differ.

With `CC1=C(/C=C/C(C)=C/C=C/C(C)=C/C(=O)O)C(C)(C)CCC1` [RA, retinoic acid], in experiment [1] (setting [12]), the “No. mice with tumor 0-3 Months postinjection” value is given as 6, the “No. mice with tumor 3-5 Months postinjection” value is recorded as 1 and the “No. mice with tumor Total” value was 7. Moreover, the “cells induced to differentiate (OCT4A-negative)” value in [2] (20 μmol/L retinoic acid) is “about 50%”. For the same molecule, in [3] (20 μmol/L retinoic acid, NCCIT (pSuicide) cells), the “cells induced to differentiate (OCT4A-negative)” value is on record as “about 50%”. Further, the OCT4A-positive cells in experiment [4] (after RA induction, NCCIT cells) was 40-60%. Moreover, the “percentage of OCT4A-positive cells” value in experiment [5] (RA-treated NCCIT (pSuicide) cells before ganciclovir treatment) is recorded as 59.10%±0.5%. The OCT4A-positive cells in [5] (after RA induction, NCCIT (pSuicide) cells) is on record as 40-60%.
For `Nc1nc(O)c2ncn(COC(CO)CO)c2n1` [ganciclovir], the “mice that developed tumors of mice injected with ganciclovir-treated cells” value in experiment [1] (cells treated with ganciclovir for 14 days before injection, 3 months after injection) was 1 of 12 and 1/14. Moreover, the “Tumors responded to ganciclovir” value is reported as 0/7 in experiment [6] (NCCIT-derived tumors, ganciclovir 50 mg/kg intraperitoneally daily) and 4/4 in experiment [7] (NCCIT(pSuicide)-derived tumors, ganciclovir 50 mg/kg intraperitoneally daily). Further, the tumor growth result in experiment [6] (tumors from NCCIT cells, ganciclovir 50 mg/kg i.p. daily for two weeks) was “continued to grow and not”; in experiment [7] (tumors from NCCIT (pSuicide) cells, ganciclovir 50 mg/kg i.p. daily for two weeks), “stopped growing; also recorded: inhibited growth”; in experiment [7] (two mice with tumors from differentiated NCCIT (pSuicide) cells treated with ganciclovir), “inhibited”. Moreover, the cell killing result in experiment [8] (setting [13]) is recorded as “killed”; in experiment [9] (setting [13]) it was “not”. Besides, the proliferation result in experiment [8] (ganciclovir treatment) was “affected”; in experiment [9] (ganciclovir treatment), “not affected and not”. In addition, the “elimination of OCT4A-positive cells” value in experiment [2] (2 μmol/L ganciclovir for 7 days after 10 days RA) is given as “did not eliminate”; in [3] (2 μmol/L ganciclovir for 7 days after 10 days RA, NCCIT (pSuicide) cells), “eliminated”. Also, the “cells with nuclear staining of OCT4A antibody” value in [3] (1670 immunostained ganciclovir-treated NCCIT (pSuicide) cells examined) is on record as “none”. The OCT4A expression entry in experiment [10] is recorded as “did not reduce”; in experiment [11] it was “undetectable”. Further, the “percentage of OCT4A-positive cells” value in experiment [4] (RA-treated NCCIT cells after ganciclovir treatment) is reported as 30.18%±2.46%; in [5] (RA-treated NCCIT (pSuicide) cells after ganciclovir treatment) it was 2.27%±0.12%.
